From ChEMBL document CHEMBL3992519 (J Med Chem, 2017) come the findings set out here.

Series [1] can be described thus: Solubility of the compound in water. The class given is physicochemical. The note with it: buffer.
The target in series [2] is T1, Orexin/Hypocretin receptor type 1 (Homo sapiens, UniProt O43613).
T1 sequence (O43613 whole entry): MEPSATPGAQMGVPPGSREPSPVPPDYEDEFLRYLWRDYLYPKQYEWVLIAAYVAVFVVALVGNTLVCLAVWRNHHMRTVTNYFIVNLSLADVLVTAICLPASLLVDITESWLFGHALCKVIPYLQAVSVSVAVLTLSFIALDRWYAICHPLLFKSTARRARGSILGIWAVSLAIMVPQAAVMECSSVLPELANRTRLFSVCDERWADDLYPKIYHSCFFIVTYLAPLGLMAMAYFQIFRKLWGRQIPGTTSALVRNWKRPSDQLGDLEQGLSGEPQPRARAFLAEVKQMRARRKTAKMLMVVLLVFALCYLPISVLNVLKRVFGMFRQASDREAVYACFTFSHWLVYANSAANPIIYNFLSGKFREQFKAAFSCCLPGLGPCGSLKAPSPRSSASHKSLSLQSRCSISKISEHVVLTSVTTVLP
Description: Antagonist activity at human OX1R expressed in CHOK1 cells assessed as inhibition of orexin A-induced intracellular calcium level preincubated for 15 mins followed by orexin A addition by Fura-2-AM dye based fluorescence assay. Background: Calcium flux is commonly read through the fluorescence of an indicator in the cells.

A short description of series [3]: Solubility of the compound in saline. To be noted: buffer. The class given is physicochemical.
Series [4] in a line: Selectivity index, ratio of IC50 for human OX2R expressed in CHOK1 cells to IC50 for human OX1R expressed in CHOK1 cells.

Broadly, the Ki is the equilibrium dissociation constant of an inhibitor or competing ligand from its target.

The structures appear in SMILES notation.

For the compound `COc1ccc2c3c1O[C@H]1[C@H](N(C)C(=O)/C=C/c4ccoc4)CC[C@@]4(O)[C@@H](C2)N(S(=O)(=O)c2ccc(C#N)cc2)CC[C@]314`, the solubility entry in series [1] and in series [3] was “Insoluble” each time. The Ki in series [2] was determined as 13.9 nM. The “Ratio IC50” value in series [4] is below 88.4.
On to `COc1ccc2c3c1O[C@H]1[C@H](N(C)C(=O)/C=C/c4ccoc4)CC[C@@]4(O)[C@@H](C2)N(S(=O)(=O)c2ccccc2N(C)C)CC[C@]314.Cl`, for which the solubility entry in series [1] and in series [3] was “Insoluble” each time. For the same compound, the Ki in series [2] was determined as 1.92 nM. Besides, the “Ratio IC50” value in series [4] is below 88.4.
Take `COc1ccc2c3c1O[C@H]1[C@H](N(C)C(=O)/C=C/c4ccoc4)CC[C@@]4(O)[C@@H](C2)N(S(=O)(=O)c2cccc(N(C)C)c2)CC[C@]314.Cl`: the solubility result in series [1] and in series [3] was “Insoluble” throughout. The Ki in series [2] is 7.25 nM. In series [4], the “Ratio IC50” value is below 88.4.
Turning to `COc1ccc2c3c1O[C@H]1[C@H](N(C)C(=O)/C=C/c4ccoc4)CC[C@@]4(O)[C@@H](C2)N(S(=O)(=O)c2ccc(Br)cc2)CC[C@]314`, the solubility entry in series [1] and in series [3] was “Insoluble” each time. For the same compound, in series [2], the Ki was 6.21 nM. Also, the “Ratio IC50” value in series [4] is recorded as below 88.4.
Take `COc1ccc2c3c1O[C@H]1[C@H](N(C)C(=O)/C=C/c4ccoc4)CC[C@@]4(O)[C@@H](C2)N(S(=O)(=O)c2ccccc2C#N)CC[C@]314`: the solubility result in series [1] and in series [3] was “Insoluble” each time. For the same compound, the Ki in series [2] was found to be 1.96 nM. Also, the “Ratio IC50” value in series [4] is given as below 88.4.
`COc1ccc2c3c1O[C@H]1[C@H](N(C)C(=O)/C=C/c4ccoc4)CC[C@@]4(O)[C@@H](C2)N(S(=O)(=O)c2cccc(C)c2)CC[C@]314`: the solubility entry in series [1] and in series [3] was “Insoluble” each time. Further, the inhibition constant Ki in series [2] amounted to 2.98 nM. Also, the “Ratio IC50” value in series [4] is below 88.4.
In the case of `COc1ccc2c3c1O[C@H]1[C@H](N(C)C(=O)/C=C/c4ccoc4)CC[C@@]4(O)[C@@H](C2)N(S(=O)(=O)c2ccc(C)cc2)CC[C@]314`, the solubility result in series [1] and in series [3] was “Insoluble” each time. The Ki in series [2] came out at 5.85 nM. Moreover, the “Ratio IC50” value in series [4] is given as below 88.4.
On to `COc1ccc2c3c1O[C@H]1[C@H](N(C)C(=O)/C=C/c4ccoc4)CC[C@@]4(O)[C@@H](C2)N(S(=O)(=O)C2CC2)CC[C@]314`, for which the solubility entry in series [1] and in series [3] was “Insoluble” each time. In addition, the Ki in series [2] came out at 12.1 nM. For the same compound, the “Ratio IC50” value in series [4] was below 88.4.
Turning to `COc1cccc(S(=O)(=O)N2CC[C@]34c5c6ccc(OC)c5O[C@H]3[C@H](N(C)C(=O)/C=C/c3ccoc3)CC[C@@]4(O)[C@H]2C6)c1`, the solubility result in series [1] and in series [3] was “Insoluble” throughout. Moreover, the Ki in series [2] turned out to be 2.44 nM. For the same compound, the “Ratio IC50” value in series [4] is reported as below 88.4.
With `COc1ccc2c3c1O[C@H]1[C@H](N(C)C(=O)/C=C/c4ccoc4)CC[C@@]4(O)[C@@H](C2)N(C(C)=O)CC[C@]314`, the solubility result in series [1] and in series [3] was “Insoluble” throughout. Moreover, in series [2], the Ki came out at 541 nM. In addition, in series [4], the “Ratio IC50” value is listed as below 88.4.
As to `COc1ccccc1S(=O)(=O)N1CC[C@]23c4c5ccc(OC)c4O[C@H]2[C@H](N(C)C(=O)/C=C/c2ccoc2)CC[C@@]3(O)[C@H]1C5`, the solubility result in series [1] and in series [3] was “Insoluble” each time. For the same compound, the Ki in series [2] was determined as 6.37 nM. In addition, the “Ratio IC50” value in series [4] is below 88.4.
With `COc1ccc2c3c1O[C@H]1[C@H](N(C)C(=O)/C=C/c4ccoc4)CC[C@@]4(O)[C@@H](C2)N(S(=O)(=O)c2ccc(Cl)cc2)CC[C@]314`, the solubility result in series [1] and in series [3] was “Insoluble” throughout. Moreover, the Ki in series [2] stood at 5.13 nM. Besides, in series [4], the “Ratio IC50” value was below 88.4.
With `COc1ccc(S(=O)(=O)N2CC[C@]34c5c6ccc(OC)c5O[C@H]3[C@H](N(C)C(=O)/C=C/c3ccoc3)CC[C@@]4(O)[C@H]2C6)cc1`, the solubility result in series [1] and in series [3] was “Insoluble” each time. Further, the Ki in series [2] was determined as 8.99 nM. The “Ratio IC50” value in series [4] is recorded as below 88.4.
On to `COc1ccc2c3c1O[C@H]1[C@H](N(C)C(=O)/C=C/c4ccoc4)CC[C@@]4(O)[C@@H](C2)N(S(=O)(=O)c2ccccc2C)CC[C@]314`, for which the solubility result in series [1] and in series [3] was “Insoluble” each time. In addition, in series [2], the Ki amounted to 1.7 nM. Besides, in series [4], the “Ratio IC50” value was below 88.4.
As to `COc1ccc2c3c1O[C@H]1[C@H](N(C)C(=O)/C=C/c4cccnc4)CC[C@@]4(O)[C@@H](C2)N(S(=O)(=O)c2ccccc2N(C)C)CC[C@]314`, in series [2], the Ki was determined as 42.3 nM.
Turning to `CN(C(=O)/C=C/c1ccccc1)[C@@H]1CC[C@@]2(O)[C@H]3Cc4ccc(O)c5c4[C@@]2(CCN3CC2CC2)[C@H]1O5.Cl`, the solubility entry in series [1] and in series [3] was “Insoluble” each time. Moreover, in series [2], the Ki is 389 nM. In series [4], the “Ratio IC50” value is on record as below 88.4.
As for `CN(C(=O)/C=C/c1ccco1)[C@@H]1CC[C@@]2(O)[C@H]3Cc4ccc(O)c5c4[C@@]2(CCN3CC2CC2)[C@H]1O5`, the solubility entry in series [1] and in series [3] was “Insoluble” throughout. Moreover, the inhibition constant Ki in series [2] came to 751 nM. Moreover, the “Ratio IC50” value in series [4] was below 88.4.
Consider `COc1ccc2c3c1O[C@H]1[C@H](N(C)C(=O)/C=C/c4ccccn4)CC[C@@]4(O)[C@@H](C2)N(S(=O)(=O)c2ccccc2N(C)C)CC[C@]314`, for which the Ki in series [2] stood at 1.36 nM.
For `COc1ccc2c3c1O[C@H]1[C@H](N(C)C(=O)/C=C/c4ccoc4)CC[C@@]4(O)[C@@H](C2)N(S(=O)(=O)c2ccccc2Br)CC[C@]314`, the solubility entry in series [1] and in series [3] was “Insoluble” in each case. Further, the Ki in series [2] was 2.1 nM. Also, the “Ratio IC50” value in series [4] is given as below 88.4.
Take `COc1ccc2c3c1O[C@H]1[C@H](N(C)C(=O)/C=C/c4ccoc4)CC[C@@]4(O)[C@@H](C2)N(S(=O)(=O)c2c(C)cc(C)cc2C)CC[C@]314`: the solubility entry in series [1] and in series [3] was “Insoluble” each time. Besides, the inhibitory constant (Ki) in series [2] worked out at 4.16 nM. Further, the “Ratio IC50” value in series [4] is below 88.4.
For the compound `COc1ccc2c3c1O[C@H]1[C@H](N(C)C(=O)/C=C/c4ccoc4)CC[C@@]4(O)[C@@H](C2)N(S(=O)(=O)c2cccc(C(F)(F)F)c2)CC[C@]314`, the solubility result in series [1] and in series [3] was “Insoluble” in each case. In series [2], the Ki came out at 6.19 nM. For the same compound, the “Ratio IC50” value in series [4] is below 88.4.
Turning to `COc1ccc2c3c1O[C@H]1[C@H](N(C)C(=O)/C=C/c4ccoc4)CC[C@@]4(O)[C@@H](C2)N(S(=O)(=O)c2ccc(F)cc2)CC[C@]314`, the solubility entry in series [1] and in series [3] was “Insoluble” in each case. Further, the Ki in series [2] came to 4.05 nM. Also, the “Ratio IC50” value in series [4] is recorded as below 88.4.
With `CCCCS(=O)(=O)N1CC[C@]23c4c5ccc(OC)c4O[C@H]2[C@H](N(C)C(=O)/C=C/c2ccoc2)CC[C@@]3(O)[C@H]1C5`, the solubility entry in series [1] and in series [3] was “Insoluble” throughout. Further, in series [2], the Ki came to 5.94 nM. Moreover, the “Ratio IC50” value in series [4] is on record as below 88.4.
Turning to `COc1ccc2c3c1O[C@H]1[C@H](N(C)C(=O)/C=C/c4ccoc4)CC[C@@]4(O)[C@@H](C2)N(S(=O)(=O)c2cccc([N+](=O)[O-])c2)CC[C@]314`, the solubility entry in series [1] and in series [3] was “Insoluble” in each case. Also, the Ki in series [2] stood at 5.05 nM. In addition, the “Ratio IC50” value in series [4] is reported as below 88.4.
In the case of `COc1ccc2c3c1O[C@H]1[C@H](N(C)C(=O)/C=C/c4ccoc4)CC[C@@]4(O)[C@@H](C2)N(S(=O)(=O)c2ccccc2Cl)CC[C@]314`, the solubility result in series [1] and in series [3] was “Insoluble” throughout. In addition, the Ki in series [2] turned out to be 1.93 nM. In series [4], the “Ratio IC50” value is on record as below 88.4.
Consider `COc1ccc2c3c1O[C@H]1[C@H](N(C)C(=O)/C=C/c4ccoc4)CC[C@@]4(O)[C@@H](C2)N(S(=O)(=O)c2cccc(C#N)c2)CC[C@]314`, for which the solubility result in series [1] and in series [3] was “Insoluble” each time. In addition, the Ki in series [2] was determined as 7.3 nM. Moreover, the “Ratio IC50” value in series [4] is listed as below 88.4.
Turning to `COc1ccc2c3c1O[C@H]1[C@H](N(C)C(=O)/C=C/c4ccoc4)CC[C@@]4(O)[C@@H](C2)N(S(=O)(=O)c2ccc([N+](=O)[O-])cc2)CC[C@]314`, the solubility result in series [1] and in series [3] was “Insoluble” in each case. For the same compound, the Ki in series [2] was 12.5 nM. In addition, the “Ratio IC50” value in series [4] is on record as below 88.4.
With `CN(C)c1ccc(S(=O)(=O)N2CC[C@]34c5c6ccc(O)c5O[C@H]3[C@H](N(C)C(=O)/C=C/c3ccoc3)CC[C@@]4(O)[C@H]2C6)cc1`, the Ki in series [2] is 320 nM.
Turning to `CN(Cc1ccccc1)[C@@H]1CC[C@@]2(O)[C@H]3Cc4ccc(O)c5c4[C@@]2(CCN3CC2CC2)[C@H]1O5.Cl`, the solubility entry in series [1] and in series [3] was “Insoluble” throughout. The “Ratio IC50” value in series [4] is below 88.4.
